From patent US6670351B1, “Method for ameliorating muscle weakness/wasting in a patient infected with human immunodeficiency virus-type 1” (Bio-Technology General Corporation, priority 1992, dated 2003)
Read-outs that look alike come from different tables or passages of the source.

What was measured:
[1] = test system: patients with uterine cervical cancer; conditions: administered parentally; cited from earlier work
[2] = test system: acute uremic rats; conditions: cited from earlier work
[3] = test system: patients with acute alcoholic hepatitis; conditions: cited from earlier work
[4] = cited from earlier work
[5] = published parameter; cited from earlier work
[6] = test system: chronic renal failure; conditions: cited from earlier work
[7] = test system: HIV-associated myopathy and muscle weakness/wasting; assay: Case example: HIV-seropositive patient with HIV-associated myopathy and muscle weakness/wasting; assay type: in vivo, human; conditions: for return to previous levels of function and strength: trial after oxandrolone was no longer obtainable
Text: A patient, a homosexual person, known to be HIV-seropositive since February 1989, noted difficulty opening drawers and bottles in May 1989. […] However, their muscle stretch reflexes remained normal.
They complained of an inability to ascend a flight of stairs. […] The patient's creatine kinase tested at 456 Units per liter. […] Round cell inflammatory infiltrates were also noted. In light of these developments, the zidovudine treatment was terminated.
Substantial improvement initially followed the discontinuation of zidovudine. However, because of a subsequent continued and progressive weakness rendering it difficult for the patient to ascend or descend a flight of stairs, a prednisone therapy (60 mg daily) was initiated.
Thereafter, a trial period of oral oxandrolone administration (2.5 milligrams, three times daily, in tablet form) was initiated. […] The patient's weight increased from 115 pounds to 130 pounds. The patient's muscle atrophy was alleviated as well.
After several months of the aforementioned therapy with oxandrolone, the patient was no longer able to obtain oxandrolone for use as a medication. Weakness and weight loss ensued.

[8] = man, oral 10 milligram dose, biphasic decline
[9] = oral 2.5 milligrams three times daily

In the case of `CCCCCCCCCC(=O)O[C@H]1CC[C@H]2[C@@H]3CCC4=CC(=O)CC[C@@H]4[C@H]3CC[C@]12C` [nandrolone decanonate], the “macrophage activity and cell-mediated immunity” value [1] is listed as “enhanced macrophage activity and cell-mediated immunity”.

In the case of `CC1(O)CC[C@H]2[C@@H]3CCC4CC(=O)OC[C@]4(C)[C@H]3CC[C@@]21C` (stereo partly shown) [oxandrolone, 17-hydroxy-17-methyl-2-oxaandrostan-3-one], the muscle protein synthesis [2] is given as “increased muscle protein synthesis”, the drug-related nephrotoxicity ([3]; daily doses up to 80 mg/day for four weeks and 40 mg/day for eight weeks) is given as “did not result in any drug-related nephrotoxicity” and the lymphocyte number ([3]; patients with severe alcoholic hepatitis) is given as “significantly improved lymphocyte number”. For the same compound, the “urinary excretion of the administered dose” value ([4]; after 96 hours) was “approximately 65%”, the distribution half-life [4, 8] was “approximately 30 minutes” and the elimination half-life [4, 8] was 9.4 h. For the same compound, the absorption ([4]; man, oral 10 milligram dose) was “rapidly and completely absorbed”, the “time of mean peak plasma concentration” value ([4]; man, oral 10 milligram dose) was 66 min and the protein binding ([4]; man) was “extensive”. The fecal excretion ([4]; over the same time period (96 hours)) was “less than 3%”, the form of excretion ([4]; taken orally) was “excreted mainly unchanged and unconjugated in urine” and the “urinary excretion of an oral dose” value ([4]; within 72 hours after ingestion) was “approximately 35%”. The “Biological T½” value [5] was 9.4 hr, the Glucuronidation [5] was “Little” and the Metabolism [5] was “Little”. The “Oral Bioavailability” value [5] was 100%, the “Plasma Clearance” value [5] was 0.717 mL/min/kg and the Tmax [5] was 1.1 h. The Vd [5] was 0.578 L/kg, the “protein binding” value [5] was >95% and the “clinical improvement after administration” value [6] was “clinical improvement in appetite, cell mass, linear growth, and weight for height”. The “ability to use stairs within one month” value [7, 9] was “able to ascend and descend stairs without problems”, the muscle atrophy [7, 9] was “alleviated” and the “strength by confrontation testing” value [7, 9] was “nearly normal strength”. For the same compound, the “liver functions / side effects” value ([7]; oral 2.5 milligrams three times daily, liver functions closely monitored) was “undesirable side effects were not detected”, the “patient's well being, strength and weight within two weeks” value ([7]; oral 2.5 milligrams three times daily, tablet) was “improved sense of well being, became stronger, and gained weight” and the “patient's weight after therapy” value ([7]; oral 2.5 milligrams three times daily, increased from 115 pounds) was 130 pounds.

In the case of `C[C@]12C/C(=C/O)C(=O)C[C@@H]1CC[C@@H]1[C@@H]2CC[C@@]2(C)[C@H]1CC[C@]2(C)O` [oxymethalone], the “return to previous levels of function and strength” value [7] is reported as “did not return the patient to their previous levels of function and strength”.

With `C[C@]12C=CC(=O)C=C1CC[C@@H]1[C@@H]2C(=O)C[C@@]2(C)[C@H]1CC[C@]2(O)C(=O)CO` [prednisone] the improvement of weakness ([7]; 60 mg daily) was “No significant improvement”.

In the case of `C[C@]12Cc3c[nH]nc3C[C@@H]1CC[C@@H]1[C@@H]2CC[C@@]2(C)[C@H]1CC[C@]2(C)O` [stanazol], the “return to previous levels of function and strength” value [7] is reported as “did not return the patient to their previous levels of function and strength”.
